From ChEMBL document CHEMBL1125702 (J Med Chem, 1991)

Test system: Cynomolgus monkey
Assay: Compound was evaluated for pseudo Hill coefficients (nH) in cynomolgus monkeys
Format: ADME, organism-based, Macaca fascicularis
Settings: in vivo

SMILES | Hill coefficient [nH]
COC(=O)[C@H]1[C@@H](c2ccc(F)cc2)C[C@H]2CC[C@H]1N2C | 0.66
COC(=O)C1C2CCC(C[C@@H]1c1ccc(F)cc1)N2 (stereo not given in full) | 0.64
CCCN1C2CCC1C(C(=O)OC)[C@@H](c1ccc(F)cc1)C2 (stereo not given in full) | 0.7
C=CCN1C2CCC1C(C(=O)OC)[C@@H](c1ccc(F)cc1)C2 (stereo not given in full) | 0.65
COC(=O)[C@H]1[C@@H](OC(=O)c2ccccc2)C[C@@H]2CC[C@H]1N2C [COCAINE] | 0.54
